# From patent US6589992B2, “Inhibiting collagen-induced platelet aggregation” (Parker Hughes Institute, priority 1999, dated 2003)
# Entries after “also recorded” stand apart in the source; their conditions may differ. Read-outs that look alike come from different tables or passages of the source.
# Experiments:
# platelets [1] = assay: Serotonin release from collagen-stimulated platelets; format: cell-based, human; conditions: LFM-A13 treated, N=4
# Method: Release of serotonin from collagen (10 and 20 μg/mL)-stimulated platelets was measured using a serotonin detection kit (Immunotech, Marseille, France) according to the manufacturer's specifications. Sonicated platelets were used for measurement of the total serotonin content of platelets.
# BTK = BTK (Homo sapiens, UniProt Q06187); assay: BTK immune complex kinase assay from collagen-stimulated platelets; conditions: 100 μM
# Chain of BTK (Q06187 whole entry): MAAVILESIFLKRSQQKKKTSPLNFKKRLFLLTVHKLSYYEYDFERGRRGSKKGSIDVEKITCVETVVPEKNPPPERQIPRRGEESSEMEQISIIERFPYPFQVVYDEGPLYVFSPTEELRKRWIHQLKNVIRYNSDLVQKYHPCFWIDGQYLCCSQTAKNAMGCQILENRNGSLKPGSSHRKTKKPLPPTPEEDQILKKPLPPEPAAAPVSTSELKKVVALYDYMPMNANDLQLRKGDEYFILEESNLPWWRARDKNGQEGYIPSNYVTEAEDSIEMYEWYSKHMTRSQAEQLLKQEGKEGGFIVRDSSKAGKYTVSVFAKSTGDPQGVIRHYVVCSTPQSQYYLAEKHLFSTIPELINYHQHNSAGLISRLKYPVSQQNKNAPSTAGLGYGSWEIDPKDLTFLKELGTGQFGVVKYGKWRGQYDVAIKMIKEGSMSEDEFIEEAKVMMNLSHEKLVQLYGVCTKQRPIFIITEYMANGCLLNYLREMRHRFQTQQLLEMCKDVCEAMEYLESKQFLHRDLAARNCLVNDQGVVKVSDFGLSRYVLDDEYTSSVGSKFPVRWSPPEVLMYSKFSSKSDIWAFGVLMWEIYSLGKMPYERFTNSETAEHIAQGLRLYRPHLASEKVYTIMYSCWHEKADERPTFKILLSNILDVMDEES
# Method: Platelets were isolated from platelet rich plasma (PRP) purchased from the Memorial Blood Bank (Minneapolis, Minn.) as previously described (Asselin et al. 1997) and used at a concentration of 3×10^9 cells/mL in a modified Tyrode's buffer (137 mM NaCl, 2.7 mM KCl, 0.9 mM MgCl2, 5.5 mM glucose, 3.3 mM NaH2PO4, 3.8 mM Hepes, pH 7.4). […] Platelets were then stimulated at 37° C. with 2 μg/mL (or 10 μg/mL) collagen or 0.1 U/mL thrombin (Chronolog Inc., Philadelphia, Pa.). Stimulation was stopped and platelets were lysed at the indicated time points by adding ice cold 3x Triton X-100 lysis buffer (150 mM NaCl, 15 mM EGTA, 3% Triton X-100, 3% Sodium deoxycholate, 0.3% SDS, 3 mM PMSF, 3 mM Na3 VO4, 60 μg/mL leupeptin, 60 μg/mL aprotinin, 50 mM Tris-HCl pH 7.4) and incubating for 1 hour on ice. Following removal of the membranous fraction by centrifugation (12,000xg, 30 min) the samples were subjected to immunoprecipitation utilizing antibodies raised against BTK (Santa Cruz Biotechnologies, Santa Cruz, Calif.), TEC (Upstate Biotechnology, Lake Placid, N.Y.) and PLCγ2 (Santa Cruz Biotechnologies, Santa Cruz, Calif.) (Vassilev et al., 1999). Immunoprecipitations, immune-complex protein kinase assays, and immunoblotting on PVDF membranes (Milipore, Bedford, Mass.) using the ECL chemiluminescence detection system (Amersham Life Sciences, Arlington Heights, Ill.) were conducted as described previously (Mahajan et al., 1999; Sudbeck et al., 1999; Uckun et al., 1996a; Uckun et al., 1996b).
# For immunoblotting, antibodies against phosphotyrosine (Transduction Labs, Lexington, Ky.), BTK (Santa Cruz Biotechnologies, Santa Cruz, Calif.), TEC (Upstate Biotechnology, Lake Placid, N.Y.) and PLCγ2 (Santa Cruz Biotechnologies, Santa Cruz, Calif.) were used. Horse radish peroxidase-conjugated sheep anti-mouse, donkey anti-rabbit secondary antibodies were purchased from Transduction Laboratories (Lexington, Ky.). Horse radish peroxidase-conjugated sheep anti-goat antibodies were purchased from Santa Cruz (Santa Cruz, Calif.). Following electrophoresis, kinase gels were dried onto Whatman 3M filter paper and subjected to phosphoimaging on a Molecular Imager (Bio-Rad, Hercules, Calif.) as well as autoradiography on film. Similarly, all chemiluminescent BTK/TEC Western blots were subjected to three dimensional densitometric scanning using the Molecular Imager and Imaging Densitometer using the Molecular Analyst/Macintosh version 2.1 software following the specifications of the manufacturer (Bio-Rad).
# Antibodies raised against BTK and TEC utilized for immunoprecipitations and Western blot analysis were purchased from Santa Cruz (Santa Cruz, Calif.).
# (§1) For each drug concentration, a BTK/TEC kinase activity index as determined by comparing the ratios of the kinase activity in phosphorimager units (PIU) and density of the protein bands in densitometric scanning units (DSU) to those of the baseline sample and using the formula: Activity Index=[PIU of kinase band/DSU of BTK/TEC protein band]test sample: [PIU of kinase band/DSU of BTK/TEC protein band]baseline control sample (FIGS. 1A-1D).
# The samples were subjected to immunoprecipitation utilizing antibodies raised against BTK. The BTK immune complexes were subjected to immune kinase assays.
# mice = assay: Tail bleeding time in mice; format: in vivo
# Method: Mice were placed in a tube holder and tail bleeding was performed with a 2 mm cut from the protruding tail tip, the tail was placed vertically into 10 mL normal saline in a 37° C. water bath and bleeding times determined as previously described (Teng et al., 1997). Platelet plug formation and clotting times on the eye after retro-orbital venupuncture were evaluated using published methods (Sheu et al., 1995).
# SRC = molecular target: T1, SRC (Homo sapiens, UniProt P12931); assay: SRC activity in platelets; format: cell-based; conditions: data not shown
# T1 construct: endogenous in cells; host or cells: platelets
# T1 sequence (P12931 whole entry): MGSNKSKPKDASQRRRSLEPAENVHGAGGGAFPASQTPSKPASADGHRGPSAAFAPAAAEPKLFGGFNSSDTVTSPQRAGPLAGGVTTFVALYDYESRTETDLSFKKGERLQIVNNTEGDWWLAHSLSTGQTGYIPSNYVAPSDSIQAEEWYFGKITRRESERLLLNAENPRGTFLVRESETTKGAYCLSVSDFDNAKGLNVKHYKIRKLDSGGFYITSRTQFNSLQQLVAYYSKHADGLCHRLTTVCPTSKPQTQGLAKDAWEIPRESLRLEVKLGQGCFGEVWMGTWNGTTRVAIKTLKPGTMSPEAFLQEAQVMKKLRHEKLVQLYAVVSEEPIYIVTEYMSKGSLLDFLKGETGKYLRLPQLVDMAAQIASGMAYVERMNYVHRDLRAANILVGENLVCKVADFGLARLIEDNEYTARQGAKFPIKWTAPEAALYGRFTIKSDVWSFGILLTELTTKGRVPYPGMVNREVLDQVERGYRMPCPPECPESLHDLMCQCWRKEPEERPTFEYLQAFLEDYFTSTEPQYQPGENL
# human platelets = assay: Electron microscopy (HR-LVSEM, TEM) of platelet shape changes; format: cell-based; conditions: 100 μM
# Method: HR-LVSEM was utilized for topographical imaging of the platelet surface membrane, as previously reported (D'Cruz et al., 1998). […] Treated platelets were then stimulated with collagen (10 μg/mL) or thrombin (0.1 U/mL) for 10 seconds (FIGS. 3A-3F). 3% glutaraldehyde was added to stop the reaction. Samples were prepared for HR-LVSEM as previously described (D'Cruz et al., 1998) and analyzed using a Hitachi S-900 SEM instrument (Hitachi Instruments, Gaithersburg, Md.) at an accelerating voltage of 2 kV and […].
# Samples were then prepared for TEM as previously described (White, 1983). Briefly, 0.1% glutaraldehyde was added to stop the reaction. Following a brief centrifugation, the sample pellets were layered with 3% glutaraldehyde for 40 minutes at room temperature. The samples were then postfixed in 1% OsO4 for 1 hour at 4° C., rinsed three times in distilled water at room temperature, dehydrated in a graded ethanol series (25, 50, 75, 90, 95 and 100%) and 100% propylene oxide. The samples were embedded in Embed 812 (Electron Microscopy Science, Washington, Pa.). Silver sections were picked up on mesh grids, stained 10 minutes in 1% uranyle acetate/70% ethanol, and 10 minutes in Reynold's lead citrate. […] True magnifications were determined by photographing a calibration grid at each magnification step on the microscope and using this scale to determine final print enlargements.
# TEC kinase = molecular target: T2, TEC kinase (Homo sapiens, UniProt P42680); assay: TEC immune complex kinase assay from collagen-stimulated platelets; format: cell-based
# T2 sequence (P42680 1-631): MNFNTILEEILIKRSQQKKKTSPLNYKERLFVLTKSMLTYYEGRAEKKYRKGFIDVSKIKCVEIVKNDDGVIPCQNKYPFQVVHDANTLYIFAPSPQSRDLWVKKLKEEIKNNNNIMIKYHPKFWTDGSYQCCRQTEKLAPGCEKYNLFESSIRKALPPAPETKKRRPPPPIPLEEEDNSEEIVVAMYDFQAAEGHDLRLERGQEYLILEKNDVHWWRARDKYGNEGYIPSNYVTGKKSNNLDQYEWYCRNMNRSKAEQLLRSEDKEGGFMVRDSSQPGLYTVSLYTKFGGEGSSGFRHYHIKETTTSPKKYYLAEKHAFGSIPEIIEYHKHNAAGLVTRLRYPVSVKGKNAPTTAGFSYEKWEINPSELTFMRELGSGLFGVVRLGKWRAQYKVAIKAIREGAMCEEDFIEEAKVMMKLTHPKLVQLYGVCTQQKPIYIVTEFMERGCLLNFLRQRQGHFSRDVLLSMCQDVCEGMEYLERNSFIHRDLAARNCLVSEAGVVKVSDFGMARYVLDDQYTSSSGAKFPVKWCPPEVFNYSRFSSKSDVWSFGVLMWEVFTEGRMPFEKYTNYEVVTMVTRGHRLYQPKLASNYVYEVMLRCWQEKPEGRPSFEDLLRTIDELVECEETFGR
# Method: Platelets were isolated from platelet rich plasma (PRP) purchased from the Memorial Blood Bank (Minneapolis, Minn.) as previously described (Asselin et al. 1997) and used at a concentration of 3×10^9 cells/mL in a modified Tyrode's buffer (137 mM NaCl, 2.7 mM KCl, 0.9 mM MgCl2, 5.5 mM glucose, 3.3 mM NaH2PO4, 3.8 mM Hepes, pH 7.4). […] Platelets were then stimulated at 37° C. with 2 μg/mL (or 10 μg/mL) collagen or 0.1 U/mL thrombin (Chronolog Inc., Philadelphia, Pa.). Stimulation was stopped and platelets were lysed at the indicated time points by adding ice cold 3x Triton X-100 lysis buffer (150 mM NaCl, 15 mM EGTA, 3% Triton X-100, 3% Sodium deoxycholate, 0.3% SDS, 3 mM PMSF, 3 mM Na3 VO4, 60 μg/mL leupeptin, 60 μg/mL aprotinin, 50 mM Tris-HCl pH 7.4) and incubating for 1 hour on ice. […]
# as §1
# platelets [2] = assay: Collagen-induced platelet aggregation (aggregometer); format: cell-based, human; conditions: for IC50: 30 min pretreatment
# Method: Platelet aggregation with respect to control was monitored in a Chronolog Model 560 Dual Chamber Platelet Aggregometer.
# Controls were treated with vehicle (PBS supplemented with 1% DMSO) alone. The treated PRP samples were diluted 1:4 with sterile normal saline and platelets were stimulated with collagen (2 μg/mL or 5 μg/mL, Chronolog Inc., Philadelphia, Pa.) or thrombin (0.1 U/mL, Chronolog Inc., Philadelphia, Pa.) as agonists under stirred conditions. Platelet aggregation was monitored in a platelet aggregometer (Model 560 Dual Chamber-Instrument, Chronolog Ind., Philadelphia, Pa.) for 5 minutes.
# ICR mice = assay: Thromboplastin-induced fatal thromboembolism in mice; format: in vivo; conditions: for median survival time / probability of event-free survival after thromboplastin challenge: N=10
# Method: The mice were challenged with 25 mg/kg thromboplastin (Sigma, St. Louis, Mo.) via a bolus i.v. injection in to the tail vein as previously described (Sato et al., 1998). At the time of thromboembolism-related death, after the thromboplastin injection or elective sacrifice at 48 hours using ketamine/xylazine, all mice were perfused with PBS followed by 4% phosphate buffered formalin. PBS and formalin were pumped through the left ventricle of the heart and allowed to exit through a 3 mm incision through the anterior wall of the right ventricle.
# platelets [3] = assay: Collagen-induced calcium mobilization in platelets (fluorescence); format: cell-based, human; conditions: 100 μM; collagen 20 μg/ml
# Method: Platelets were loaded with […] (Molecular Probes, Eugene Oreg.) for 15 minutes at 37 degrees C. […] The changes in fluorescence were monitored on a spectrofluorimeter.
# SYK = molecular target: T3, SYK (Homo sapiens, UniProt P43405); assay: SYK activity in platelets; format: cell-based; conditions: data not shown
# T3 construct: endogenous in cells; host or cells: platelets
# [4] = 30 min, 0 seconds after 2 μg/ml collagen
# [5] = 30 min, 90 seconds after 2 μg/ml collagen
structure (smiles),measurement,setting,value
"C/C(O)=C(\C#N)C(=O)Nc1cc(Br)ccc1Br [LFM-A13, α-cyano-β-hydroxy-β-methyl-N-(2,5-dibromophenyl)-propenamide]",serotonin in platelet supernatants,platelets [1],369 ± 14 nM
same,"DSU (density of BTK protein band, densitometric scanning units)",BTK; [4],1236
same,"PIU (BTK autophosphorylation, phosphorimager units)",BTK; [4],78
same,BTK kinase activity in collagen-stimulated platelets,"BTK; 30 min, 2 μg/mL collagen",completely prevented collagen-induced stimulation of BTK; also recorded: significantly inhibited BTK kinase activity
same,"DSU (density of BTK protein band, densitometric scanning units)",BTK; [5],1432
same,"PIU (BTK autophosphorylation, phosphorimager units)",BTK; [5],68
same,reduction of baseline BTK activity in platelets,BTK; 30 min at 37° C.,> 90%
same,prolongation of tail bleeding time versus vehicle,mice; 20 mg/kg,4.9 fold
same,average tail bleeding time,"mice; 20 mg/kg i.v., N=5",7.4 ± 1.0 min
same,prolongation of tail bleeding time versus vehicle,mice; 40 mg/kg,5.6 fold
same,average tail bleeding time,"mice; 40 mg/kg i.v., N=5",8.5 ± 0.6 min
same,prolongation of tail bleeding time versus vehicle,mice; 80 mg/kg,6.3 fold
same,average tail bleeding time,"mice; 80 mg/kg i.v., N=12",9.5 ± 0.5 min
same,baseline and collagen-induced SRC activity in platelets,SRC,did not inhibit the baseline activity of SYK or SRC or prevent collagen-induced SYK and SRC activation
same,collagen-induced pseudopod formation,"human platelets; 30 min, collagen 10 μg/mL, 10 seconds",inhibited collagen-induced pseudopod formation; also recorded: no pseudopods were observed
same,thrombin-induced shape changes,human platelets; thrombin 0.1 U/mL,did not inhibit the thrombin-induced shape changes
same,collagen-induced stimulation of TEC kinase in platelets,TEC kinase; collagen-stimulated platelets,prevented collagen-induced stimulation of TEC kinase
same,baseline activity of TEC in unstimulated platelets,TEC kinase; unstimulated platelets,did not reduce the baseline activity of TEC
same,collagen-induced platelet aggregation at 100 μM,"platelets [2]; 100 μM, 30 minute pretreatment, 2 μg/mL collagen",completely prevented
same,IC50,"platelets [2]; Homo sapiens, Platelet, read-out: IC50 inhibition of platelet aggregation, 2 μg/mL collagen",2780 nM
same,IC50,"platelets [2]; Homo sapiens, Platelet, read-out: IC50 inhibition of platelet aggregation, 5 μg/mL collagen",66100 nM
same,"platelet response to high and low doses of collagen, PRP","platelets [2]; PRP treated 20 min or 24 hours, collagen 2 or 5 μg/mL",significantly reduced
same,IC50,"platelets [2]; read-out: IC50 inhibition of platelet aggregation, 2 μg/mL collagen",2800 ± 930 nM
same,median survival time,ICR mice; LFM-A13 20 mg/kg,8.0 min
same,probability of event-free survival after thromboplastin challenge,ICR mice; LFM-A13 20 mg/kg,20±13%
same,median survival time,ICR mice; LFM-A13 40 mg/kg,> 2880 min
same,probability of event-free survival after thromboplastin challenge,ICR mice; LFM-A13 40 mg/kg,80±13%
same,drug-related toxic lesions in organs,"ICR mice; LFM-A13 pretreated, thromboplastin-challenged mice",No drug-related toxic lesions were detected
same,collagen-induced calcium mobilization,platelets [3],significantly reduced
same,baseline and collagen-induced SYK activity in platelets,SYK,did not inhibit the baseline activity of SYK or SRC or prevent collagen-induced SYK and SRC activation
